According to US6677157B1, “Method of diagnosis of prostate cancer” (Uropath Pty Ltd., A.C.N., priority 1998, dated 2004):

System: mixed lymphocyte reaction
Test: Effect of keratan sulphate on a mixed lymphocyte reaction
Type: cell-based
Settings: 20 μg/ml
Method: The function of keratan sulphate in prostate tissue is unknown. It is known, however, that GAG compounds are important in the prevention of autoimmune bonne diseases (forms of arthritis). In order to determine whether keratan sulphate may have an immune regulatory effect it was assessed by intorducing it into a mixed lymphocyte reaction. […] At markedly diluted lymphocyte ratios of >270:1 no effect was evident (see FIG. 2).

Substance: keratan sulphate
- reduction of mixed lymphocyte reaction (lymphocyte ratios of 10, 30 and 90:1): 50%
- effect on mixed lymphocyte reaction (markedly diluted lymphocyte ratios of >270:1): no effect
